# Values quoted from earlier work in patent US12029798B2, “Pre-targeting strategies for molecular imaging and/or radioimmunotherapy” (UNIVERSITY OF PITTSBURGH—OF THE COMMONWEALTH SYSTEM OF …, priority 2016, dated 2024).
# Details: reaction with azides
substance,measurement,value
oxa-dibenzocyclooctynes [ODIBO],cycloaddition rate,43 M^−1S^−1
